Reference: US8143398B1, “Activity of new N-acylated ciprofloxacin derivatives against faculative intracellular bacteria” (University of South Florida, priority 2010, dated 2012)

Assays:
[1] = tested on: intracellular Bartonella henselae Houston-1; assay: Assay for intracellular activity in infected HMEC-1 cells; format: cell-based
Method: HMEC-1 cells were maintained in MCDB131 medium supplemented with 10% FBS, 5% L-glutamine, 10 ng/mL epidermal growth factor, 1 μg/mL hydrocortisone, penicillin/streptomycin and amphotericin B. HMEC-1 cells were infected with Bartonella henselae Houston-1 at a multiplicity of infection (MOI) of 100 for 4 hour in medium without ciprofloxacin-derived compounds. After infection, the cells were washed 2× with PBS and then treated with gentamicin (200 μg/mL) for 1 hour. Infected cells were washed as before and medium containing ciprofloxacin-derived compound was added at concentrations of 0.1 μg/mL, 1.0 μg/mL and 10 μg/mL. Infected cells were then incubated for 24, 48 and 96 hour. Ciprofloxacin-derived compounds were then removed, and the infected cells were washed as before and lysed with 0.1% saponin Lysates were plated on chocolate agar. After incubation for 8 days, CFU's were counted to determine the number of viable intracellular bacteria.

[2] = tested on: Bartonella strains; assay: Agar dilution testing (MIC); format: cell-based; conditions: growth read after 1 week
Method: Agar was prepared with the N-acyl ciprofloxacin-derived compounds at concentrations of 10 μg/mL, 1.0 μg/mL and 0.1 μg/mL. An equivalent volume of DMSO was added to a control plate. Nine strains of Bartonella were harvested from 4-day-old plates, resuspended in 1.0 mL sterile HIB and adjusted to a McFarland 2.0 turbidity standard. Using a specific template, 12.5 μL of broth suspensions of each Bartonella strain was pipetted onto each of the fluoroquinalone compound-containing chocolate agar plates and the DMSO control plate. After 1 week, the growth of each Bartonella strain was examined and recorded.

Row | Compound | activity against intracellular bacteria [1] | MIC (minimal inhibitory concentration) [2] [µg/mL] | decrease in CFUs (intracellular colony forming units) ([1]; infected HMEC cells treated with 1.0 μg/mL for 24 hours)
1 | CC(=O)N1CCN(c2cc3c(cc2F)c(=O)c(C(=O)O)cn3C2CC2)CC1 [RC4-125] | significant activity against intracellular bacteria | 1.0 to 10.0 | –
2 | CCC(C)(C)C(=O)N1CCN(c2cc3c(cc2F)c(=O)c(C(=O)O)cn3C2CC2)CC1 [RC4-143] | significant activity against intracellular bacteria | 0.1 to 0.5 | –
3 | CCC(=O)N1CCN(c2cc3c(cc2F)c(=O)c(C(=O)O)cn3C2CC2)CC1 [RC4-147] | significant activity against intracellular bacteria | – | greater than a tenfold decrease
4 | CCCC(=O)N1CCN(c2cc3c(cc2F)c(=O)c(C(=O)O)cn3C2CC2)CC1 [RC5-29] | significant activity against intracellular bacteria | – | –
5 | CC(C)(C)C(=O)N1CCN(c2cc3c(cc2F)c(=O)c(C(=O)O)cn3C2CC2)CC1 [RC5-32] | significant activity against intracellular bacteria | – | –
6 | CC(=O)N1CCN(c2cc3c(cc2F)c(=O)c(C(=O)N2CCN(c4cc5c(cc4F)c(=O)c(C(=O)O)cn5C4CC4)CC2)cn3C2CC2)CC1 [RC5-69] | significant activity against intracellular bacteria | – | –
